Measurements from patent US20240225971A1 (Genomatica, Inc., priority 2021, published 2024).
In brackets after ≈: the same amount, converted by molar mass.

Legend:
[1] = Clarity of fragrance ingredient in bioderived 1,3-BG by visual observation; settings: 10% ingredient in bioderived 1,3-BG; clear, slightly haze, cloudy, particles, or separation
Protocol: (§2) Clarity for each of the fragrance ingredients (10% in bioderived 1,3-BG) was determined by visual observations after compounding and blending the fragrance ingredient with bioderived 1,3-BG and identified as clear, slightly haze, cloudy, particles, or separation.
(§3) Clarity for each of the fragrance ingredients (at 1% in bioderived 1,3-BG) was determined by visual observations after compounding and blending the fragrance ingredient with bioderived 1,3-BG and identified as clear, slightly haze, cloudy, particles, or separation.

[2] = Water solubility at 25° C. of fragrance ingredients; settings: 25° C.
Text: (§1) Also included is the molecular weight of each of the fragrance ingredients. Not determinable (ND).

[3] = Flash point of fragrance ingredients; format: physicochemical
Text: as §1

[4] = Solubility of fragrance ingredients in bioderived 1,3-BG (visual inspection); settings: 10% ingredient in bioderived 1,3-BG; excellent, good, moderate, poor, or none
Protocol: as §2, §3

physchem = assay: physchem
Text: The term “fragrance composition” or “composition,” as used herein, represents a composition containing one or more fragrance ingredients described here and formulated with a physiologically acceptable diluent or solvent, used interchangeably here. In a fragrance composition, or composition that has a fragrance, such as a perfume, 20%-40% of the observable liquid may be comprised of a diluent, i.e., the delivery system for scents of the fragrance ingredients. The “log P” value, as used here, indicates whether a substance or fragrance ingredient will be absorbed by humans, animals, plants, or living tissue; diffused or disseminated by water.
as §1

[5] = Vapor pressure of fragrance ingredients
Text: as §1

[6] = Technical quality analysis (viscosity, precipitation, color, visual clarity, skin testing)
Protocol: Color changes were noted if there were any color variation resulting from the addition of fragrance ingredient in diluent. For select fragrance ingredients, skin testing was performed. Specifically, in the first round of testing, skin odor evaluation was performed on an interim basis for selective ingredients.

[7] = Repeated Insult Patch Test; format: in vivo, human
Protocol: Prior to the initiation of the study, each jar containing the test material received a N2 blanket conducted by the Analytical Department at Consumer Product Testing Company.
The upper back between the scapulae served as the treatment area. Approximately 0.2 ml of the test material, or an amount sufficient to cover the contact surface, was applied to the 1″×1″ absorbent pad portion of a clear adhesive dressing. This was then applied to the appropriate treatment site to form a semi-occlusive patch.
Erythema was scored numerically according to the key in TABLE 16. If present, additional Dermal Sequelae were indicated by the appropriate letter code and a numerical value for severity was assigned.
Patches were applied three (3) times per week (e.g., Monday, Wednesday, and Friday) for a total of nine (9) applications. The site was marked to ensure the continuity of patch application. Following supervised removal and scoring of the first Induction patch, participants were instructed to remove all subsequent Induction patches at home, twenty-four hours after application. The evaluation of this site was made again just prior to re-application. If a participant was unable to report for an assigned test day, one (1) makeup day was permitted. This day was added to the Induction period.
Applications were discontinued for the remainder of this test phase, if a moderate (2-level) reaction was observed on this new test site. Applications would also be discontinued if marked (3-level) or severe (4-level) reactivity was noted.
Rest periods consisted of one day following each Tuesday and Thursday removal, and two days following each Saturday removal.
Approximately two (2) weeks after the final Induction patch application, a Challenge patch was applied to a virgin test site adjacent to the original Induction patch site, following the same procedure described for the Induction Phase. The Challenge patch was removed and the site scored at the clinic on Day 1 and Day 3 post-application.

microorganisms = assay: Minimum Inhibitory Concentration (MIC) testing; format: cell-based

## CCCc1ccc(O)c(OC)c1 [Dihydro Eugenol]
[1]
  Clarity 10%: Clear
[2]
  Water Solubility: 228.000 µg/mL
[3]
  Flash Point: 100 °C
[4]
  Solubility 10%: Good
physchem
  logP: 2.39
[5]
  Vapor Pressure: 0.006 mm hg

## CCCCCC1C(=O)CCC1CC(=O)OC (centres unmarked) [Hedione]
[1]
  Clarity 10%: Clear
[2]
  Water Solubility: 91.720 µg/mL
[3]
  Flash Point: 148 °C
[4]
  Solubility 10%: Good
physchem
  logP: 2.653
[5]
  Vapor Pressure: 0.001 mm hg

## CC(O)CCO (centres unmarked) [bioBG, 1,3-butylene glycol]
[6]
  visual clarity compared to DPG, BB, IPM: exceptional visual clarity with a crystal clear appearance
[6]; observed with the different fragrance ingredients
  viscosity: very consistent
[7]; 40% dilution in water
  adverse events: no adverse events
[7]; bioBG diluted to 40%, human subjects, Challenge patch, Day 1 post-application, supervised removal, one line per subject
  Virgin Challenge Site Day 1* skin reaction score: 0
[7]; bioBG diluted to 40%, human subjects, Challenge patch, Day 3 post-application, one line per subject
  Virgin Challenge Site Day 3 skin reaction score: 0
[7]; bioBG diluted to 40%, human subjects, Induction reading 2, one line per subject
  Induction Phase 2 skin reaction score: 0
[7]; bioBG diluted to 40%, human subjects, Induction reading 3, one line per subject
  Induction Phase 3 skin reaction score: 0
[7]; bioBG diluted to 40%, human subjects, Induction reading 4, one line per subject
  Induction Phase 4 skin reaction score: 0
[7]; bioBG diluted to 40%, human subjects, Induction reading 5, one line per subject
  Induction Phase 5 skin reaction score: 0
[7]; bioBG diluted to 40%, human subjects, Induction reading 6, one line per subject
  Induction Phase 6 skin reaction score: 0
[7]; bioBG diluted to 40%, human subjects, Induction reading 7, one line per subject
  Induction Phase 7 skin reaction score: 0
[7]; bioBG diluted to 40%, human subjects, Induction reading 8, one line per subject
  Induction Phase 8 skin reaction score: 0
[7]; bioBG diluted to 40%, human subjects, Induction reading 9, one line per subject
  Induction Phase 9 skin reaction score: 0
[7]; bioBG diluted to 40%, human subjects, first Induction patch, supervised removal, one line per subject
  Induction Phase Day 1* skin reaction score: 0
[7]; up to a concentration of 40%
  skin properties when applied to skin: non-irritating, non-sensitizing, and/or non-allergenic
microorganisms; Escherichia coli, E. coli, concentration completely inhibiting microbial growth
  MIC: 100 mg/mL (≈ 1110 mM)
microorganisms; compared to 1,3-PG and glycerin
  inhibition of microbial growth in MIC tests: increased ability to inhibit microbial growth compared to 1,3-Propylene Glycol (1,3-PG) and glycerin
